Source: patent publication US20250320497A1, “COMPOSITIONS AND METHODS FOR TREATING HEPATITIS B VIRUS (HBV) INFECTION AND HBV-ASSOCIATED DISEASES” (priority 2022, published 2025)

How the values were obtained:
[1] = biological target: HBsAg (Hepatitis B virus genotype D subtype ayw, UniProt P03138); experiment: Activity measured diagnostically with an immunoassay; format: binding
From the text: (§1) In certain embodiments, the anti-HBV antibody is HBC34 or an engineered variant thereof. HBC34 are human antibodies against HBsAg with high neutralizing activity. […] The activity of HBC34, as measured diagnostically with an immunoassay, is 5000 IU/mg. As a comparison, the activity of HBIG is ˜1 IU/mg.

[2] = tested on: antigenic loop of HBsAg; experiment: Binding of HBC34 to HBsAg antigenic loop, genotypes and mutants; parameters: species or system HBV
From the text: as §1

[3] = tested on: HBV; experiment: Preclinical pharmacology of SIRNA01 against HBV
From the text: In some embodiments, the siRNA that targets HBV mRNA is SIRNA01. SIRNA01 is a synthetic, chemically modified siRNA targeting HBV RNA with a covalently attached triantennary N-acetyl-galactosamine (GalNAc) ligand that allows for specific uptake by hepatocytes. […] An SIRNA can have multiple antiviral effects, including degradation of the pgRNA, thus inhibiting viral replication, and degradation of all viral mRNA transcripts, thereby preventing expression of viral proteins. This may result in the return of a functional immune response directed against HBV, either alone or in combination with other therapies. The ability of SIRNA01 to reduce HBsAg-containing noninfectious subviral particles also distinguishes it from currently available treatments.
SIRNA01 targets and inhibits expression of an mRNA encoded by an HBV genome according to NCBI Reference Sequence NC_003977.2 (GenBank Accession No. GI:21326584) (SEQ ID NO:1). More specifically, SIRNA01 targets an mRNA encoded by a portion of the HBV genome comprising the sequence […] (SEQ ID NO:2), which corresponds to nucleotides 1579-1597 of SEQ ID NO:1. Because transcription of the HBV genome results in polycistronic, overlapping RNAs, SIRNA01 results in significant inhibition of expression of most or all HBV transcripts.

[4] = tested on: chronic HBV infection; conditions: patients with chronic HBV infection; cited from earlier work
[5] = tested on: chronic HBV infection; conditions: after 48 weeks of therapy; cited from earlier work
[6] = tested on: chronic HBV infection; conditions: cited from earlier work
[7] = tested on: chronic HBV infection; conditions: PEG-IFNα add-on therapy; cited from earlier work

Substance: HBC34: human antibody against HBsAg with high neutralizing activity; HC SEQ ID NO:56, LC SEQ ID NO:58
- activity, as measured diagnostically with an immunoassay [1]: 5000 IU/mg
- HBV genotypes and mutants recognized [2]: all 10 HBV genotypes and 18 mutants
- affinity of binding to the antigenic loop of HBsAg [2]: pM range

Substance: SIRNA01: synthetic, chemically modified GalNAc-conjugated siRNA targeting HBV RNA; sense strand SEQ ID NO:5, antisense strand SEQ ID NO:6 (sense GUGUGCACUUCGCUUCACA; antisense UGUGAAGCGAAGUGCACACUU; GalNAc-conjugated, chemically modified, pattern not given here)
- pharmacological activity against HBV genotypes [3]: pharmacologically active against HBV genotypes A through J
- effect in preclinical models ([3]; preclinical models): inhibit viral replication, translation, and secretion of HBsAg
- reduction in HBsAg when administered individually [4]: substantial reductions in HBsAg

Substance: peginterferon-alfa-2a [PEG-IFNα]
- percentage of patients with long-term viral control [5]: < 10%
- HBsAg loss, patients overall ([6]; PEG-IFNα 180 g administered weekly for 48-52 weeks, approximately): ≤ 10%
- rate of HBsAg loss, subset with low baseline HBsAg ([6]; baseline HBsAg less than approximately 1,000-1,500 IU/mL, with or without an NRTI): 20-40%
- mean HBsAg reduction at Week 24 [7]: 0.57 log10 IU/mL
